Measurements taken from patent publication US12377112B2, “Methods of treating neurocognitive disorders, chronic pain and reducing inflammation” (priority 2019, dated 2025).
Marks after values point to notes of the source that are not given here.

Experiments:
healthy participants = test: Phase 1 study: Rapid Visual Information Processing (RVPA); assay type: in vivo, human; conditions: Treatment V6 Day 28 (remote)
Text: In some embodiments, the Rapid Visual Information Processing (RVP) test is utilized to evaluate the safety and efficacy of psilocybin. The RVP is a measure of sustained attention outputting measures of response accuracy, target sensitivity and reaction times. In this test, the study subject is required to monitor a stream of digits from 2 to 9 for specific sequences (e.g., 3-5-7) and to acknowledge detection of the sequence by touching the on-screen response button as quickly as possible after presentation of the third digit. Digits are presented pseudorandomly to create the possibility of ‘false alarm’ responses in which the first 2 digits of a sequence are not followed by a true target, e.g., when 3 is followed by a 5, but not then by a 7. In order to complete the task successfully study subjects must sustain attention to the white box in which the digits appear. Performance on this task is measured by the speed of response to the presentation of the final digit of a target, as well as the study subject's ability to detect specified sequences. […]
To assess the effects of psilocybin on cognitive processing, a clinical trial testing psilocybin in healthy participants was performed. […] Rapid visual information processing (RVP), a sensitive measure of sustained attention, was assessed twice prior to dosing (Day 0): during screening (Day −2) and at baseline (Day −1). […]

male C57BL/6 mice = test: Chronic constriction injury (CCI) model of neuropathic pain, von Frey paw withdrawal threshold; assay type: in vivo, mouse
Description: To determine whether psilocybin may alleviate chronic neuropathic pain, various doses of psilocybin were tested in a mouse model of chronic constriction injury (CCI).
Male C57BL/6 mice (age 6-7 weeks, source: Charles River UK) were housed in standard caging in groups of 2-4, with free access to food (5CR4, Purina) and water (except during placement in the test box) on a 12/12 light/dark cycle.
All animals underwent behavioral testing of mechanical allodynia on three consecutive days (Day −2, Day−1 and Day 0) prior to surgery in order to determine the baseline withdrawal thresholds. Briefly, Static mechanical (tactile) allodynia was assessed by measurement of withdrawal threshold using calibrated (force; g) von-Frey monofilaments (Touch-Test Sensory Evaluator; Scientific Marketing Associates) applied to the plantar surface of the hind-paw. The animals were placed in individual Perspex boxes on a raised metal mesh for 30-40 minutes before the test. A series of graduated von Frey hairs (0.07, 0.16, 0.4, 0.6 and 1 g) was applied in sequence with a protocol of 1 second on 1 second off, repeated 10 times. Each hair was applied perpendicularly to the center of the ventral surface of the paw until it slightly bends. The force applied to the hind-paw of the animal to induce 5 responses out of 10 trials was recorded as paw withdrawal threshold (PWT). Three baseline paw withdrawal thresholds were taken on ipsilateral paws. The mean of the last two readings used as the baseline withdrawal threshold.
Subsequently, surgery was performed under anesthesia (Isoflurane mixed with oxygen, 3:1, 2 L/min) to tie three loose ligatures of prolene (7-0, Ethicon) around the sciatic nerve, with 1 mm spacing between each. The nerve was then returned below the muscle layer and the wound closed using absorbable sutures (Vicryl).
Following recovery from surgery, Von Frey assessment of mechanical allodynia was taken on days 19 and 22. Animals were then ranked and randomized (based on a Latin square design) to treatment groups according to the percentage change (compared to pre-surgery baseline) of the mean mechanical withdrawal threshold observed on days 19 and 22. Only those animals showing a PWT percentage change of >50% from pre-surgery baseline were included in the study.
On day 23, the animals were dosed with psilocybin (1, 3 or 10 mg/kg by intraperitoneal injection) or vehicle (10 mL/kg by intraperitoneal injection). Nerve pain medication Pregabalin (15 mg/kg administered orally) was also used as a positive control. Allodynia was then assessed at 0.5, 4 and 24 hours post-treatment timepoint (PTT).

**Q.** Which “RVPA difference of least squares mean compared to placebo group, LS mean Estimate” value (healthy participants; 10 mg single oral) does the source give for CN(C)CCc1c[nH]c2cccc(OP(=O)(O)O)c12 [Psilocybin, psilocybin] here?
**A.** 0.01096

**Q.** And the “RVPA difference of least squares mean compared to placebo group, LS mean Estimate” value (healthy participants; 25 mg single oral)?
**A.** 0.01225

**Q.** And the “Force-induced paw withdrawal, mean” value (male C57BL/6 mice; 1 mg/kg IP group, D19-22 Neuropathic baseline (before dosing))?
**A.** 0.16 g

**Q.** What about the “Force-induced paw withdrawal, mean” value (male C57BL/6 mice; 1 mg/kg IP group, D-2 D-1 Baseline (before surgery and dosing)) of the same compound?
**A.** 0.72 g

**Q.** What about the “Force-induced paw withdrawal, mean” value (male C57BL/6 mice; 1 mg/kg IP, D23 0.5 hours PTT) of the same compound?
**A.** 0.16 g

**Q.** What about the “Force-induced paw withdrawal, mean” value (male C57BL/6 mice; 1 mg/kg IP, D23 4 hours PTT) of the same compound?
**A.** 0.16 g

**Q.** What about the “Force-induced paw withdrawal, mean” value (male C57BL/6 mice; 1 mg/kg IP, D24 24 hours PTT) of the same compound?
**A.** 0.15 g

**Q.** And the “Force-induced paw withdrawal, mean” value (male C57BL/6 mice; 3 mg/kg IP group, D19-22 Neuropathic baseline (before dosing))?
**A.** 0.16 g

**Q.** And the “Force-induced paw withdrawal, mean” value (male C57BL/6 mice; 3 mg/kg IP group, D-2 D-1 Baseline (before surgery and dosing))?
**A.** 0.68 g

**Q.** And the “Force-induced paw withdrawal, mean” value (male C57BL/6 mice; 3 mg/kg IP, D23 0.5 hours PTT)?
**A.** 0.22 g

**Q.** What about the “Force-induced paw withdrawal, mean” value (male C57BL/6 mice; 3 mg/kg IP, D23 4 hours PTT) of the same compound?
**A.** 0.15 g

**Q.** What about the “Force-induced paw withdrawal, mean” value (male C57BL/6 mice; 3 mg/kg IP, D24 24 hours PTT) of the same compound?
**A.** 0.25 g

**Q.** What about the “Force-induced paw withdrawal, mean” value (male C57BL/6 mice; 10 mg/kg IP group, D19-22 Neuropathic baseline (before dosing)) of the same compound?
**A.** 0.17 g

**Q.** What about the “Force-induced paw withdrawal, mean” value (male C57BL/6 mice; 10 mg/kg IP group, D-2 D-1 Baseline (before surgery and dosing)) of the same compound?
**A.** 0.79 g

**Q.** And the “Force-induced paw withdrawal, mean” value (male C57BL/6 mice; 10 mg/kg IP, D23 0.5 hours PTT)?
**A.** 0.38* g

**Q.** What about the “Force-induced paw withdrawal, mean” value (male C57BL/6 mice; 10 mg/kg IP, D23 4 hours PTT) of the same compound?
**A.** 0.51* g

**Q.** And the “Force-induced paw withdrawal, mean” value (male C57BL/6 mice; 10 mg/kg IP, D24 24 hours PTT)?
**A.** 0.25 g
